Where two headings read alike, the source gives them in different places.
Format: in vitro ADME, rat
Conditions: for Long-term stability, mean accuracy / Freeze-thaw stability, mean accuracy / Short-term stability, mean accuracy: rat plasma, LC-qTOF-MS, triplicate or more; for Long-term stability, mean accuracy: 2 weeks, –20 °C; for Freeze-thaw stability, mean accuracy: 3 cycles, –20 °C and RT; for Short-term stability, mean accuracy: 4 h, RT
Method: To evaluate the stability of α-amanitin in rat plasma under the actual experimental environments, some stability tests were also conducted. The accuracy (%) and precision (% CV) of the stability test met the acceptance criteria of ±25%, identifying α-amanitin was stable under the short-term, long-term, and freeze-thaw conditions.
The method qualification was performed with “fit-for-purpose” criteria which are suitable for discovery stage research. The qualification contained seven levels of STD and three levels of QC in duplicate. […] Preliminary stability tests were performed at low, medium, and high QC in rat plasma. The stability test was performed under three different conditions: a short-term, a long-term, and a freeze-thaw condition. The short-term stability test was conducted at room temperature (RT) for 4 h. The long-term stability was conducted at –20 °C for 2 weeks. The freeze-thaw stability was conducted for three freeze and thaw cycles at –20 °C and RT. The extraction recovery of protein precipitation was evaluated by analyzing the difference between extracted Medium-QC (165 ng/mL) samples and post-extraction QC samples. The post-extraction QC sample was prepared by spiking the α-amanitin after protein precipitation.
The precision and accuracy of the acceptance criteria for this qualification runs were within ± 25% which are also similar to the discovery-stage bioanalytical criteria in pharmaceutical industry. All experiments were performed in triplicate or more.

With CC[C@H](C)[C@@H]1NC(=O)CNC(=O)[C@@H]2Cc3c([nH]c4cc(O)ccc34)[S@+]([O-])C[C@H](NC(=O)CNC1=O)C(=O)N[C@@H](CC(N)=O)C(=O)N1C[C@H](O)C[C@H]1C(=O)N[C@@H]([C@@H](C)[C@@H](O)CO)C(=O)N2 [α-amanitin] the “Long-term stability, mean accuracy” value (high QC 1820 ng/mL) was 103%, the “Long-term stability, mean accuracy” value (low QC 15.0 ng/mL) was 106% and the “Long-term stability, mean accuracy” value (medium QC 165 ng/mL) was 118%. For the same molecule, the “Freeze-thaw stability, mean accuracy” value (high QC 1820 ng/mL) was 114%, the “Freeze-thaw stability, mean accuracy” value (low QC 15.0 ng/mL) was 94.9% and the “Freeze-thaw stability, mean accuracy” value (medium QC 165 ng/mL) was 103%. The “Short-term stability, mean accuracy” value (high QC 1820 ng/mL) was 95.7%, the “Short-term stability, mean accuracy” value (low QC 15.0 ng/mL) was 81.6% and the “Short-term stability, mean accuracy” value (medium QC 165 ng/mL) was 80.5%. The “Stability in rat plasma (in words)” value (short-term, long-term, and freeze-thaw conditions, acceptance criteria ±25%) was “stable”.

Source: paper PMC9740789, “Investigation of In Vitro and In Vivo Metabolism of α-Amanitin in Rats Using Liquid Chromatography-Quadrupole Time-of-Flight Mass Spectrometric Method” (Molecules, 2022)
